Test results from PMC6770581, “New Thalidomide-Resembling Dicarboximides Target ABC50 Protein and Show Antileukemic and Immunomodulatory Activities” (Biomolecules, 2019).
Read-outs that look alike come from different tables or passages of the source.

Legend:
[1] = test system: HeLa cells; conditions: 48 h, MTT, mean ± SD; cited from earlier work
[2] = test system: HL-60 cells; conditions: 48 h, MTT, mean ± SD; cited from earlier work
[3] = test system: K562 cells; conditions: 48 h, MTT, mean ± SD; cited from earlier work
[4] = test system: CFPAC cells; test: MTT cytotoxicity assay, CFPAC; type: cell-based; conditions: Homo sapiens, 48 h, mean ± SD
Experimental: (§1) Human umbilical vein endothelial cells (purchased from Life Technologies, Carlsbad, CA, USA) were cultured according to the manufacturer’s instructions in Medium 200 supplemented with Low Serum Growth Supplement. 1 × 10^4 cells were seeded on each well on a 96-well plate (Nunc, Roskilde, Denmark). The HeLa (human cervix carcinoma, cat. #93021013), CFPAC (human pancreatic adenocarcinoma, cat. #91112501), K562 (chronic myelogenous leukemia, cat. #89121407), HL-60 (acute myelogenous leukemia, cat. #98070106), and MOLT-4 (Human acute T lymphoblastic leukemia, cat. #85011413) cells were purchased from European Collection of Authenticated Cell Cultures (ECACC). They were cultured in an RPMI 1640 medium supplemented with antibiotics (streptomycin, penicillin) and 10% fetal calf serum (20% for HL60), in a 5% CO2-95% air atmosphere. 7 × 10^3 cells were seeded on each well on a 96-well plate (Nunc). 24 hours later the cells were exposed to the test compounds. The aliquots of stock solutions of the test compounds (freshly prepared in DMSO) were added to the cell cultures to yield final concentrations of 1, 10^−1, 10^−2, 10^−3, 10^−4, and 10^−5 mM. The concentration of DMSO in the cell culture medium was 1%. The IC50 value (the concentration of a test compound required to reduce the cell survival fraction to 50% of the control) was calculated from a dose-response curve and used as a measure of cellular sensitivity to a given treatment. The IC50 values are given as means (± standard deviation (SD)) from 2 independent experiments with 4 technical replicates. The cytotoxicity of all compounds was determined by the MTT (3-(4,5-dimethylthiazol-2-yl)-2,5-diphenyltetrazolium bromide) assay (Sigma, St. Louis, MO, USA). Briefly, after 24 h or 48 h of incubation with a given compound, the cells were treated with the MTT reagent and incubation was continued for 2 h. MTT-formazan crystals were dissolved in 20% SDS and 50% DMF at pH 4.7 and VIS light absorption was measured at 570 and 650 nm on a microplate reader FLUOstar Omega (BMG Labtech, Offenburg, Germany). As a control (100% viability), cells grown in the presence of 1% DMSO were used.

[5] = test system: MOLT-4 cells; test: MTT cytotoxicity assay, MOLT-4; type: cell-based; conditions: Homo sapiens, 48 h, mean ± SD
Experimental: as §1

[6] = test system: HUVEC (human umbilical vein endothelial cells); conditions: 48 h, MTT, mean ± SD; cited from earlier work
[7] = test system: K562 cells; test: MTT cytotoxicity assay, K562; type: cell-based; conditions: Homo sapiens, 48 h, mean ± SD
Experimental: as §1

[8] = test system: HUVEC (human umbilical vein endothelial cells); test: MTT cytotoxicity assay, HUVEC; type: cell-based; conditions: 48 h, mean ± SD
Experimental: as §1

[9] = test system: HeLa cells; test: MTT cytotoxicity assay, HeLa; type: cell-based; conditions: Homo sapiens, 48 h, mean ± SD
Experimental: as §1

[10] = biological target: ABC50 (Homo sapiens, UniProt Q8NE71); test: Streptavidin-agarose pull-down from K562 cell lysate with LC-MS-MS/MS and Western blot identification; type: binding; design: endogenous in cells; host or cells: K562 cell lysate
ABC50, sequence (Q8NE71 whole entry): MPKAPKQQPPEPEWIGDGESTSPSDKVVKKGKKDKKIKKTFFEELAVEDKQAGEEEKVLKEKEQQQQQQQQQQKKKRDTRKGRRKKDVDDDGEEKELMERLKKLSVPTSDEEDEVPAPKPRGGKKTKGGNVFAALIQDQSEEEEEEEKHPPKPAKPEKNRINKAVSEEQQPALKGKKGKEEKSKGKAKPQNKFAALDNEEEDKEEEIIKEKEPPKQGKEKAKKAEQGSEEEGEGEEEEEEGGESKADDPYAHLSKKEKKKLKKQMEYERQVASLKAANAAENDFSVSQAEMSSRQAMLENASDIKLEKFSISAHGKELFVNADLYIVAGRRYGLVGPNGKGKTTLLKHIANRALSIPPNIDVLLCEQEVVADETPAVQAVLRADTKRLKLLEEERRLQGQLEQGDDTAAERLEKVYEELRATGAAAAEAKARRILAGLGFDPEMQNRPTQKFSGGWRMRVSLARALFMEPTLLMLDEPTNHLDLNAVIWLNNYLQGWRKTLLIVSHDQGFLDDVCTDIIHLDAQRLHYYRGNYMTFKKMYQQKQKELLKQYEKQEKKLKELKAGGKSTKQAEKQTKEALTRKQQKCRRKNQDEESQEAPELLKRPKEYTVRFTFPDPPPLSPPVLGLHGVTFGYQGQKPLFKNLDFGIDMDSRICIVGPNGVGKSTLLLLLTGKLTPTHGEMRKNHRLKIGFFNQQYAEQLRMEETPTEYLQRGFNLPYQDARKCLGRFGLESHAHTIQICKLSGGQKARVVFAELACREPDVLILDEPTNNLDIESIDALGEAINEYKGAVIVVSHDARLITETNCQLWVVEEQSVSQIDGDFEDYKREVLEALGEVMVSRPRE
Experimental: Cells were lysed in TBS buffer containing 1% Triton X-100 and Complete® protease inhibitor cocktail (Roche) for 15 min on ice with occasional vortexing. Insoluble material was centrifuged (12,000 rpm, 15 min, 4 °C) and supernatants were collected. Total protein concentration was measured with DC Protein Assay (Bio-Rad, Hercules, CA, USA). Cell lysates containing 30 µg of total protein were mixed with Laemli buffer supplemented with SDS and β-mercaptoethanol, denatured (10 min, 95 °C) and subjected to sodium dodecyl sulfate polyacrylamide gel electrophoresis (SDS-PAGE) electrophoresis (4% stacking and 10% resolving gels). Resolved proteins were electrotransferred (semi-dry, 90 min, 1.5 mA/cm^2) to a 0.45 µm nitrocellulose membrane (Thermo Scientific, Waltham, MA, USA). Membranes were blocked for 2 hours in TBST buffer (20 mM Tris-HCl pH 7.5, 0.9% NaCl, 0.1% Tween 20) containing 5% BSA (BioShop, Burlington, ON, Canada) and probed with primary antibodies (overnight at 4 °C) diluted in TBST buffer with 0.5% BSA. Tubulin served as a loading control for IB experiments. Anti IKZF3 (rabbit monoclonal, dilution 1:500), anti IKZF1 (rabbit polyclonal, dilution 1:500) were from Abcam. Anti IRF4 (rabbit polyclonal, dilution 1:500) were from Cell Signaling Technology. Anti α-tubulin (mouse monoclonal IgG, 1:1000) was from Sigma Aldrich. Anti ABC50 antibodies (mouse monoclonal ABC5H06, dilution 1:100) was from Abcam. After extensive washing with TBST buffer, membranes were probed with secondary goat anti-rabbit or goat anti-mouse HRP-conjugated IgG (1:5000 in TBST, Santa Cruz Biotech, Dallas, TX, USA) for 45 min at room temperature. Membranes were washed in TBST buffer and the chemiluminescent signal was developed with ECL Plus Western Blotting Substrate (Thermo Scientific) and visualized in Syngene G:Box detection system. Protein bands intensities were analysed using Image Quant (version 5.0, GE Healthcare Life Sciences, Pittsburgh, PA, USA).
300 nmoles of biotinylated 6b was added to 0.6 mL of the high capacity streptavidin agarose resin (Thermo Scientific, Waltham, MA, USA) equilibrated in 50% DMSO and incubated for 2 h (room temperature, gently mixing, total volume 0.7 mL). The K562 cell lysate was prepared in the buffer containing 0.5% NP-40 and supplemented with protease inhibitors coctail (Roche). Next, the beads with immobilized 6b were added to the K562 cell lysate (9 mg of total protein) and incubated for 2 h at 4 °C with gently mixing. As a control, K562 cell lysate incubated with the streptavidin agarose beads was used. After incubation the beads were centrifuged (2000 rpm, 2 min, 4 °C) and washed 6 times with 5 mL of lysis buffer. After the last wash, the beads were resuspended in Laemli buffer and denatured 10 min at 95 °C. Released proteins (40 µL/well) were separated by SDS-PAGE (4% stacking, 8% resolving gel) and silver stained with Pierce Silver Stain Kit (Thermo Scientific, Waltham, MA, USA). Bands of interest were cut out of the gel and digested with trypsin. Tryptic peptides were separated by liquid chromatography (LC) and analyzed by LC-MS-MS/MS with Orbitrap mass spectrometer (Thermo). The sequences of the MS/MS spectra were identified by correlation with the human protein sequence database (Sprot 2016_11, H.) using MASCOT software (version 2.6.2, Matrix Science Inc., Boston, MA, USA) (http://www.matrixscience.com/). The significance threshold was p < 0.05 and ions score or expect cut-off was 22.

[11] = test system: K562 cells; test: Annexin V/PI or 7-AAD flow cytometry of apoptosis, K562; type: cell-based, human; conditions: K562, 5× IC50 (3 10 µM, 6 5 µM, 5 5 µM), staurosporine 1 µM; different incubation times for 3, 6 and 5
Experimental: The phosphatidylserine on the extracellular side of cell membranes was quantified using an FITC Annexin V Apoptosis Detection Kit I (BD Pharmingen, San Diego, CA, USA) according to the manufacturer’s instruction. 10^6 cells were seeded on a 6-well plate (Nunc). […] The control cells were exposed to 1% DMSO or 1μM staurosporine. After treatment the cells were centrifuged at 700 rpm (120× g) for 5 min, washed twice with cold PBS and then resuspended in 1x binding buffer to a density of 10^6 cells/ml. 100 µL of the resuspended cells was stained in the dark with 5 μl of Annexin V-fluoroscein isothiocyanate (FITC) solution and 10 µL propidium iodide (PI) solution for 15 min at room temperature. The samples were then diluted with 400 μL of a binding buffer and within 1 h analyzed with a flow cytometer (BD FACSCalibur^TM, BD Biosciences, San Jose, CA, USA). After treatment, four populations of cells were assessed: (1) viable (neither apoptotic nor necrotic, Annexin V-FITC and PI negative), (2) apoptotic (Annexin V-FITC positive and PI negative), (3) late apoptotic (Annexin V-FITC and PI positive), and (4) necrotic (Annexin V-FITC negative and PI positive).
0.15 × 10^6 cells/ml were seeded on a 6-well plate (Nunclon, Thermo Fisher Scientific, Waltham, MA, USA). Following 24 h preincubation the cells were treated with either the compound or 1% DMSO (control) for 24 or 48 h. After indicated time, the cells were washed with cold PBS (w/o Mg^2+, Ca^2+), stained with Annexin V (FITC Annexin V Apoptosis Detection Kit with 7-aminoactinomycin D (7-AAD), Biolegend, San Diego, CA, USA) according to manufacturer instructions and analysed using BD FACSCalibur flow cytometer. Obtained Flow Cytometry Standard files were analyzed using BD FACSDiva Software (FACSDiva Version 6.1.3, Becton Dickinson Biosciences, San Jose, CA, USA). The experiment was performed three times in at least two technical replicates.

Row | SMILES | IC50 [1] [µM] | IC50 [2] [µM] | IC50 [3] [µM] | IC50 [5] [µM] | IC50 [6] [µM] | further results
1 | CCC12C(=O)C(CC)(C(c3ccccc3)=C1c1ccccc1)C1C(=O)N(CCN(C)C)C(=O)C12 (stereo not shown) [Compound 1] | > 100 | > 100 | 10 ± 0.59 | 20 ± 2.7 | > 100 | IC50 [4]: > 1000 µM
2 | CCN(CC)CCN1C(=O)C2C(C1=O)C1(CC)C(=O)C2(CC)C(c2ccccc2)=C1c1ccccc1 (stereo not shown) [Compound 2] | > 100 | > 100 | 4.5 ± 0.29 | 30 ± 2.3 | > 100 | IC50 [4]: > 1000 µM
3 | CCC12C(=O)C(CC)(C(c3ccccc3)=C1c1ccccc1)C1C(=O)N(CCCN(C)C)C(=O)C12 (stereo not shown) [Compound 4] | > 100 | > 100 | 8 ± 0.53 | 30 ± 2 | > 100 | IC50 [4]: > 1000 µM
4 | NCC(O)CN1C(=O)C2C(C1=O)C1(c3ccccc3)CC2(c2ccccc2)C(c2ccccc2)=C1c1ccccc1 (stereo not shown) [Compound 6a, 4-[-3-(amino)-2-hydroxypropyl]-1,7,8,9-tetraphenyl-4-azatricyclo[5.2.1.0^2,6]dec-8-ene-3,5-dione] | – | – | – | 5 ± 0.59 | – | IC50 [7]: 12 ± 1.5 µM; IC50 [8]: > 100 µM; IC50 [9]: 20 ± 1.9 µM
5 | O=C(CCCCC1SCC2NC(=O)NC21)NCC(O)CN1C(=O)C2C(C1=O)C1(c3ccccc3)CC2(c2ccccc2)C(c2ccccc2)=C1c1ccccc1 (stereo not shown) [Compound 6b] | – | – | – | 1.5 ± 0.06 | – | IC50 [7]: 7 ± 1.2 µM; IC50 [8]: 3.8 ± 0.22 µM; Description of protein identified, band 1 ([10]; K562 lysate pull-down, SDS-PAGE band No. 1, LC-MS-MS/MS): Talin-1; Description of protein identified, band 2 ([10]; K562 lysate pull-down, SDS-PAGE band No. 2, LC-MS-MS/MS): ATP-binding cassette sub-family F member 1 (ABCF1 or ABC50); Description of protein identified, band 3 ([10]; K562 lysate pull-down, SDS-PAGE band No. 3, LC-MS-MS/MS): ABC50; Description of protein identified, band 4 ([10]; K562 lysate pull-down, SDS-PAGE band No. 4, LC-MS-MS/MS): ABC50; Description of protein identified, band 5 ([10]; K562 lysate pull-down, SDS-PAGE band No. 5, LC-MS-MS/MS): ABC50; Description of protein identified, band 6 ([10]; K562 lysate pull-down, SDS-PAGE band No. 6, LC-MS-MS/MS): ABC50; protein identified by mass spectrometry in pulled-down bands ([10]; K562 lysate, immobilized on streptavidin-agarose, five out of six bands): ABC50 protein was identified and significantly enriched; Western blot analysis of pull-down material for ABC50 ([10]; K562 lysate, mouse monoclonal anti ABC50 antibodies): confirmed the presence of ABC50; IC50 [9]: 64 ± 10 µM
6 | CC(C)C[C@H](NC(=O)[C@H](Cc1ccccc1)NC(=O)c1cnccn1)B(O)O [bortezomib, reference compound] | 0.05 ± 0.01 | 0.3 ± 0.1 | 0.04 ± 0.01 | – | < 0.01 | –
7 | Nc1ccn([C@@H]2O[C@H](CO)[C@@H](O)[C@@H]2O)c(=O)n1 [cytarabine, reference compound] | > 1000 | 300 ± 18 | 300 ± 19 | – | > 1000 | –
8 | COc1cccc2c1C(=O)c1c(O)c3c(c(O)c1C2=O)C[C@@](O)(C(=O)CO)C[C@@H]3O[C@H]1C[C@H](N)[C@H](O)[C@H](C)O1 [doxorubicin, reference compound] | 0.5 ± 0.01 | 0.15 ± 0.03 | 0.15 ± 0.01 | – | 0.1 ± 0.03 | –
9 | CCc1c2c(nc3ccc(OC(=O)N4CCC(N5CCCCC5)CC4)cc13)-c1cc3c(c(=O)n1C2)COC(=O)[C@]3(O)CC [irinotecan, reference compound] | 200 ± 11 | 70 ± 2.5 | 10 ± 0.9 | – | 30 ± 3.7 | –
10 | CNC(=O)c1cc(Oc2ccc(NC(=O)Nc3ccc(Cl)c(C(F)(F)F)c3)cc2)ccn1 [sorafenib, reference compound] | 20 ± 2.6 | 15 ± 0.6 | 3 ± 0.3 | – | 20 ± 4.1 | –
11 | CN[C@@H]1C[C@H]2O[C@@](C)([C@@H]1OC)n1c3ccccc3c3c4c(c5c6ccccc6n2c5c31)C(=O)NC4 [staurosporine, reference compound] | – | – | – | – | – | apoptotic cells, early (LR) and late (UR) [11]: about 25%
